In US6015822A, “Sulfonamide-substituted fused 5-membered ring compounds, their use as a medicament, and pharmaceutical preparations comprising them” (Hoechst Marion Roussel Deutschland GmbH, priority 1997, dated 2000):

Molecular target: T1, human IsK protein (UniProt P15382+P70057)
T1 construct: expressed in transfected cells; host or cells: Xenopus laevis oocytes injected with in vitro synthesized IsK RNA
Assay: Inhibition of IsK current in Xenopus oocytes expressing human IsK (two microelectrode voltage clamp)
Format: cell-based
Conditions: human IsK expressed in Xenopus oocytes; voltage jumps to -10 mV lasting 15 s; pH 7.5; room temperature; extrapolated using the Hill equation; read-out: IC-50 (inhibition of IsK control current)
Description: IsK channels from man, rat or guinea-pig were expressed in Xenopus oocytes. To do this, oocytes were first isolated from Xenopus Laevis and defolliculated. IsK -encoding RNA synthesized in vitro was then injected into these oocytes. After IsK protein expression for 2-8 days, IsK currents were measured in the oocytes using the two microelectrode voltage clamp technique. The IsK channels were in this case as a rule activated using voltage jumps to -10 mV lasting 15 s. The bath was irrigated with a solution of the following composition: NaCl 96 mM, KCl 2 mM, CaCl2 1.8 mM, MgCl2 1 mM, HEPES 5 mM (titrated with NaOH to pH 7.5). These experiments were carried out at room temperature. The following were employed for acquiring data and analysis: Geneclamp amplifier (Axon Instruments, Foster City, U.S.A.) and MacLab D/A converter and software (ADInstruments, Castle Hill, Australia). The substances according to the invention were tested by adding them to the bath solution in different concentrations. The effects of the substances were calculated as the percentage inhibition of the IsK control current, which was obtained when no substance was added to the solution. The data were then extrapolated using the Hill equation in order to determine the inhibitory concentrations IC50 for the respective substances.
In the described manner, using the human IsK protein, the following IC50 values were determined for the compounds according to the invention: […]

T1 sequence (P70057 whole entry): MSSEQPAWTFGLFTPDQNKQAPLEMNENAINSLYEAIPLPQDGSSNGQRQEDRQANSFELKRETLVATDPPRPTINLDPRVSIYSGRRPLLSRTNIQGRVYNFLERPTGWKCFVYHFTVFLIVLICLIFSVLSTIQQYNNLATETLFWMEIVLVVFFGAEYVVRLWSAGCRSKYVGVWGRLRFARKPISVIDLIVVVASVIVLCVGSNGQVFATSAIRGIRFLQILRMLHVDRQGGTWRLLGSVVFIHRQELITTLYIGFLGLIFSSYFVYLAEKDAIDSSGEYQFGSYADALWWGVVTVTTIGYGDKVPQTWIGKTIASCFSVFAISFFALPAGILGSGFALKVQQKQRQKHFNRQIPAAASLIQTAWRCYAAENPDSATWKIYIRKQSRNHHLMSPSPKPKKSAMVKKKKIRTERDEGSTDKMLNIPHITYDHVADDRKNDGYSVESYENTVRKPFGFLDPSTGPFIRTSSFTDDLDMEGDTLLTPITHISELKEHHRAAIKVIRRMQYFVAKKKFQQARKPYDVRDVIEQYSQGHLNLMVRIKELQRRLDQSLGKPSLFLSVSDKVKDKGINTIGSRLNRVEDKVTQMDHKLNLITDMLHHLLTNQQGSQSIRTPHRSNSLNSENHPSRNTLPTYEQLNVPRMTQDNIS

Structure (SMILES)	IC50 [nM]
CCS(=O)(=O)N(C)C1CC(C)(C)c2ccccc21 (stereo not shown) [Example 2, 3,3-Dimethyl-1-(N-ethylsulfonyl-N-methyl)aminoindan]	~15000
CCCCCCN(C1CC(C)(C)c2ccccc21)S(C)(=O)=O (stereo not shown) [Example 3, 3,3-Dimethyl-1-(N-hexyl-N-methylsulfonyl)aminoindan]	< 10000
CCCCOc1ccc2c(c1)C(N(C)S(C)(=O)=O)CC2(C)C (stereo not shown) [Example 13, 6-Butoxy-3,3-dimethyl-1-(N-methyl-N-methylsulfonyl)aminoindan]	1200
CCCCOc1ccc2c(c1)C(N(CC)S(C)(=O)=O)CC2(C)C (stereo not shown) [Example 14, 6-Butoxy-3,3-dimethyl-1-(N-ethyl-N-methylsulfonyl)aminoindan]	440

Next, values leading:

IC50 [nM]	Structure (SMILES)
> 10000	CCCCN(C1CS(=O)(=O)c2ccccc21)S(C)(=O)=O (stereo not shown) [Example 5, N-Butyl-N-(1,1-dioxo-2,3-dihydro-1H-benzo[b]thiophen-3-yl)-methanesulfonamide]
2700	CCCCN(C1CC(C)(C)c2ccc([N+](=O)[O-])cc21)S(C)(=O)=O (stereo not shown) [Example 11, 3,3-Dimethyl-6-nitro-1-(N-butyl-N-methylsulfonyl)aminoindan]
~2000	CC1(C)CC(N(Cc2ccncc2)S(C)(=O)=O)c2cc([N+](=O)[O-])ccc21 (stereo not shown) [Example 12, 3,3-Dimethyl-6-nitro-1-[N-(4-pyridylmethyl)-N-methylsulfonyl]aminoindan]
